Source: PMC5218480 (PLoS ONE, 2017)

System: MV-4-11 cells
Assay: Gene expression microarray analysis (Affymetrix PrimeView) and GSEA
Format: cell-based, human
Design: RFU PODN (11730768_x_at) / Fold change /veh PODN (11730768_x_at) / RFU LINC00158 (11744669_a_at) / Fold change /veh LINC00158 (11744669_a_at) / RFU DUSP10 (11751237_a_at) / Fold change /veh DUSP10 (11751237_a_at) / RFU ID3 (11757404_x_at) / Fold change /veh ID3 (11757404_x_at) / RFU PLEKHG5 (11737974_s_at) / Fold change /veh PLEKHG5 (11737974_s_at) / RFU LRRC4B (11730491_at) / Fold change /veh LRRC4B (11730491_at) / RFU GIMAP4 (11747438_a_at) / Fold change /veh GIMAP4 (11747438_a_at) / RFU KRT8 (11758183_x_at) / Fold change /veh KRT8 (11758183_x_at) / RFU CNN1 (11734310_a_at) / Fold change /veh CNN1 (11734310_a_at) / RFU VPS37D (11726825_at) / Fold change /veh VPS37D (11726825_at) / RFU C10orf10 (11716522_x_at) / Fold change /veh C10orf10 (11716522_x_at) / RFU KIR2DL2 /// KIR2DL4 /// KIR2DL5A /// KIR2DL5B /// KIR2DS1 /// KIR2DS2 /// KIR2DS3 /// KIR2DS4 /// KIR3DL3 /// KIR3DL3 /// KIR3DS1 (11738374_at) / Fold change /veh KIR2DL2 /// KIR2DL4 /// KIR2DL5A /// KIR2DL5B /// KIR2DS1 /// KIR2DS2 /// KIR2DS3 /// KIR2DS4 /// KIR3DL3 /// KIR3DL3 /// KIR3DS1 (11738374_at) / RFU C1QL1 (11718748_at) / Fold change /veh C1QL1 (11718748_at) / RFU TMPRSS4 (11747572_a_at) / Fold change /veh TMPRSS4 (11747572_a_at) / RFU HAMP (11756126_x_at) / Fold change /veh HAMP (11756126_x_at) / RFU RNFT2 (11725882_a_at) / Fold change /veh RNFT2 (11725882_a_at) / RFU NR4A2 (11747474_a_at) / Fold change /veh NR4A2 (11747474_a_at) / RFU ABCC12 (11746883_a_at) / Fold change /veh ABCC12 (11746883_a_at) / RFU TMEM136 (11760407_x_at) / Fold change /veh TMEM136 (11760407_x_at) / RFU CLDN22 /// WWC2 (11732394_at) / Fold change /veh CLDN22 /// WWC2 (11732394_at) / RFU HLA-DPB1 (11760878_x_at) / Fold change /veh HLA-DPB1 (11760878_x_at) / RFU SPINT1 (11716480_a_at) / Fold change /veh SPINT1 (11716480_a_at) / RFU GAP43 (11754022_s_at) / Fold change /veh GAP43 (11754022_s_at) / RFU A4GNT (11735810_at) / Fold change /veh A4GNT (11735810_at) / RFU PRB3 (11715151_x_at) / Fold change /veh PRB3 (11715151_x_at) / RFU TUBB4B (11761932_at) / Fold change /veh TUBB4B (11761932_at) / RFU CAPN14 (11732068_a_at) / Fold change /veh CAPN14 (11732068_a_at) / RFU TMCC2 (11721928_a_at) / Fold change /veh TMCC2 (11721928_a_at) / RFU IRGQ (11745062_a_at) / Fold change /veh IRGQ (11745062_a_at) / RFU FAM174B (11720279_a_at) / Fold change /veh FAM174B (11720279_a_at) / RFU TMPRSS4 (11748680_a_at) / Fold change /veh TMPRSS4 (11748680_a_at) / RFU FAM212B (11763350_a_at) / Fold change /veh FAM212B (11763350_a_at) / RFU PLEKHG5 (11743358_a_at) / Fold change /veh PLEKHG5 (11743358_a_at) / RFU ZSCAN30 (11745921_a_at) / Fold change /veh ZSCAN30 (11745921_a_at) / RFU CMKLR1 (11741424_a_at) / Fold change /veh CMKLR1 (11741424_a_at) / RFU LOC101060620 /// MAPK8IP1 (11723275_at) / Fold change /veh LOC101060620 /// MAPK8IP1 (11723275_at) / RFU SPTSSB (11747773_x_at) / Fold change /veh SPTSSB (11747773_x_at) / RFU PRSS12 (11739890_at) / Fold change /veh PRSS12 (11739890_at) / RFU BIN1 (11741810_x_at) / Fold change /veh BIN1 (11741810_x_at) / RFU WNT11 (11732464_a_at) / Fold change /veh WNT11 (11732464_a_at) / RFU C10orf10 (11716521_a_at) / Fold change /veh C10orf10 (11716521_a_at) / RFU C5orf56 (11738089_at) / Fold change /veh C5orf56 (11738089_at) / RFU CYB561 (11721691_x_at) / Fold change /veh CYB561 (11721691_x_at) / RFU ANKRD19P (11752326_a_at) / Fold change /veh ANKRD19P (11752326_a_at) / RFU OR2T12 /// OR2T33 /// OR2T8 (11738714_s_at) / Fold change /veh OR2T12 /// OR2T33 /// OR2T8 (11738714_s_at) / RFU VCAN (11748164_a_at) / Fold change /veh VCAN (11748164_a_at) / RFU JSRP1 (11732532_at) / Fold change /veh JSRP1 (11732532_at) / RFU KRTAP10-11 (11738290_x_at) / Fold change /veh KRTAP10-11 (11738290_x_at) / RFU MYO3A (11730013_a_at) / Fold change /veh MYO3A (11730013_a_at) / RFU EBF3 (11725865_a_at) / Fold change /veh EBF3 (11725865_a_at) / RFU CAMK2N1 (11719241_x_at) / Fold change /veh CAMK2N1 (11719241_x_at) / RFU C5orf56 (11738088_a_at) / Fold change /veh C5orf56 (11738088_a_at) / RFU OLFML3 (11715873_a_at) / Fold change /veh OLFML3 (11715873_a_at) / RFU LOC100653217 /// NTM (11731650_a_at) / Fold change /veh LOC100653217 /// NTM (11731650_a_at) / RFU MAPK11 (11762145_a_at) / Fold change /veh MAPK11 (11762145_a_at) / RFU FIZ1 (11724087_x_at) / Fold change /veh FIZ1 (11724087_x_at) / RFU OASL (11726364_x_at) / Fold change /veh OASL (11726364_x_at) / RFU SOX15 (11748057_x_at) / Fold change /veh SOX15 (11748057_x_at) / RFU CD79A (11719716_a_at) / Fold change /veh CD79A (11719716_a_at) / RFU HIST1H1D (11736915_at) / Fold change /veh HIST1H1D (11736915_at) / RFU CASKIN2 (11723855_a_at) / Fold change /veh CASKIN2 (11723855_a_at) / RFU LOC730098 (11760151_x_at) / Fold change /veh LOC730098 (11760151_x_at) / RFU OR4N2 (11742367_at) / Fold change /veh OR4N2 (11742367_at) / RFU PRRT2 (11749266_a_at) / Fold change /veh PRRT2 (11749266_a_at) / RFU SNX32 (11753110_a_at) / Fold change /veh SNX32 (11753110_a_at) / RFU CDHR5 (11726645_a_at) / Fold change /veh CDHR5 (11726645_a_at) / RFU RCAN1 (11760418_a_at) / Fold change /veh RCAN1 (11760418_a_at) / RFU FAM167A (11723789_a_at) / Fold change /veh FAM167A (11723789_a_at) / RFU FAM26E (11764081_at) / Fold change /veh FAM26E (11764081_at) / RFU ISYNA1 (11749810_s_at) / Fold change /veh ISYNA1 (11749810_s_at) / RFU ACY1 (11761880_at) / Fold change /veh ACY1 (11761880_at) / RFU 11764098_at / Fold change /veh 11764098_at / RFU SAMD14 (11745864_x_at) / Fold change /veh SAMD14 (11745864_x_at) / RFU NPB (11741838_a_at) / Fold change /veh NPB (11741838_a_at) / RFU TMPRSS6 (11731388_a_at) / Fold change /veh TMPRSS6 (11731388_a_at) / RFU KRTAP10-2 (11738614_at) / Fold change /veh KRTAP10-2 (11738614_at) / RFU ARHGAP8 /// PRR5-ARHGAP8 (11727945_x_at) / Fold change /veh ARHGAP8 /// PRR5-ARHGAP8 (11727945_x_at) / RFU KRTAP5-7 /// NADSYN1 (11734609_at) / Fold change /veh KRTAP5-7 /// NADSYN1 (11734609_at) / RFU RASL12 (11751679_a_at) / Fold change /veh RASL12 (11751679_a_at) / RFU CDKN2B (11736163_a_at) / Fold change /veh CDKN2B (11736163_a_at) / RFU PRF1 (11729649_at) / Fold change /veh PRF1 (11729649_at) / RFU, ZNF638 /// ZNF638-IT1 / Fold change vs veh, ZNF638 /// ZNF638-IT1 / RFU, PANK3 / Fold change vs veh, PANK3 / RFU, SH3YL1 / Fold change vs veh, SH3YL1 / RFU, ZEB2 / Fold change vs veh, ZEB2 / RFU, NRIP1 / Fold change vs veh, NRIP1 / RFU, PTTG1IP / Fold change vs veh, PTTG1IP / RFU, CAPN2 / Fold change vs veh, CAPN2 / RFU, MED14 / Fold change vs veh, MED14 / RFU, SNORA58 / Fold change vs veh, SNORA58 / RFU, C1orf63 / Fold change vs veh, C1orf63 / RFU, LRRFIP1 / Fold change vs veh, LRRFIP1 / RFU, NDUFAF7 / Fold change vs veh, NDUFAF7 / RFU, SLC12A2 / Fold change vs veh, SLC12A2 / RFU, IBTK / Fold change vs veh, IBTK / RFU, ESF1 / Fold change vs veh, ESF1 / Fold change vs veh, TMEM50B / RFU, TAOK1 / Fold change vs veh, TAOK1 / RFU, ACBD3 / Fold change vs veh, ACBD3 / RFU, TMA16 / Fold change vs veh, TMA16 / RFU, RWDD3 / Fold change vs veh, RWDD3 / RFU, BCAT1 / Fold change vs veh, BCAT1 / RFU, EDEM3 / Fold change vs veh, EDEM3 / RFU, TMEM33 / Fold change vs veh, TMEM33 / RFU, WDR75 / Fold change vs veh, WDR75 / RFU, AHCTF1 / Fold change vs veh, AHCTF1 / RFU, TFRC / Fold change vs veh, TFRC / RFU, ZDHHC17 / Fold change vs veh, ZDHHC17 / RFU, NOM1 / Fold change vs veh, NOM1 / RFU, ARL8B / Fold change vs veh, ARL8B / RFU, ZBTB11 / Fold change vs veh, ZBTB11 / RFU, TAMM41 / Fold change vs veh, TAMM41 / RFU, KIAA1704 /// LOC100996395 / Fold change vs veh, KIAA1704 /// LOC100996395 / RFU, ING1 / Fold change vs veh, ING1 / RFU, TRMT61B / Fold change vs veh, TRMT61B / RFU, FUBP3 / Fold change vs veh, FUBP3 / RFU, TP53 / Fold change vs veh, TP53 / RFU, TNKS2 / Fold change vs veh, TNKS2 / RFU, ZFP14 / Fold change vs veh, ZFP14 / RFU, ACTR2 / Fold change vs veh, ACTR2 / RFU, PPP3R1 / Fold change vs veh, PPP3R1 / RFU, PIK3R1 / Fold change vs veh, PIK3R1 / RFU, HNRNPA1 / Fold change vs veh, HNRNPA1 / RFU, RNF170 / Fold change vs veh, RNF170 / RFU, ZNF28 / Fold change vs veh, ZNF28 / RFU, RNGTT / Fold change vs veh, RNGTT / RFU, OGT / Fold change vs veh, OGT / RFU, BRD1 / Fold change vs veh, BRD1 / RFU, MARS / Fold change vs veh, MARS / RFU, ZNF655 / Fold change vs veh, ZNF655 / RFU, FAHD1 / Fold change vs veh, FAHD1 / RFU, BDP1 / Fold change vs veh, BDP1 / RFU, LRRCC1 / Fold change vs veh, LRRCC1 / RFU, ARID1A / Fold change vs veh, ARID1A / RFU, ZNF146 / Fold change vs veh, ZNF146 / RFU, ZNF330 / Fold change vs veh, ZNF330 / RFU, GPN3 / Fold change vs veh, GPN3 / RFU, C9orf123 / Fold change vs veh, C9orf123 / RFU, N4BP2L2 / Fold change vs veh, N4BP2L2 / RFU, ARFIP1 / Fold change vs veh, ARFIP1 / RFU, FAM179B / Fold change vs veh, FAM179B / RFU, BCL10 / Fold change vs veh, BCL10 / RFU, UHRF1BP1L / Fold change vs veh, UHRF1BP1L / RFU, BET1 / Fold change vs veh, BET1 / RFU, CNOT2 / Fold change vs veh, CNOT2 / RFU, ZNF268 / Fold change vs veh, ZNF268 / Fold change vs veh, ZNF507 / RFU, DGCR2 / Fold change vs veh, DGCR2 / RFU, WDSUB1 / Fold change vs veh, WDSUB1 / Fold change vs veh, HSP90B1 /// MIR3652 / RFU, ADSS / Fold change vs veh, ADSS / RFU, GK / Fold change vs veh, GK / RFU, ZNF148 / Fold change vs veh, ZNF148 / RFU, TAF9 / Fold change vs veh, TAF9 / RFU, SLC1A5 / Fold change vs veh, SLC1A5 / RFU, SLMO2 / Fold change vs veh, SLMO2 / RFU, ABCC4 / Fold change vs veh, ABCC4 / RFU, LOC101060439 /// RAP1B / Fold change vs veh, LOC101060439 /// RAP1B / RFU, RFX7 / Fold change vs veh, RFX7 / RFU, GTPBP10 / Fold change vs veh, GTPBP10 / RFU, CNEP1R1 / Fold change vs veh, CNEP1R1 / RFU, BIVM-ERCC5 /// ERCC5 / Fold change vs veh, BIVM-ERCC5 /// ERCC5 / RFU, ILF3 / Fold change vs veh, ILF3 / RFU 11762660_at / Fold change /veh 11762660_at / RFU VCAN (11757783_s_at) / Fold change /veh VCAN (11757783_s_at) / RFU DDX43 (11728927_at) / Fold change /veh DDX43 (11728927_at) / RFU KRT8 (11758188_x_at) / Fold change /veh KRT8 (11758188_x_at) / RFU NKD1 (11759106_at) / Fold change /veh NKD1 (11759106_at) / RFU SRD5A1 (11742802_a_at) / Fold change /veh SRD5A1 (11742802_a_at) / RFU TPSAB1 /// TPSB2 (11721975_s_at) / Fold change /veh TPSAB1 /// TPSB2 (11721975_s_at) / RFU GSTM3 (11746129_a_at) / Fold change /veh GSTM3 (11746129_a_at) / RFU IL23R (11737362_x_at) / Fold change /veh IL23R (11737362_x_at) / RFU TMEM51 (11727254_a_at) / Fold change /veh TMEM51 (11727254_a_at) / RFU PIWIL2 (11732686_x_at) / Fold change /veh PIWIL2 (11732686_x_at) / RFU ORM1 (11744905_x_at) / Fold change /veh ORM1 (11744905_x_at) / RFU CCDC152 (11743942_at) / Fold change /veh CCDC152 (11743942_at) / RFU ECM1 (11717891_a_at) / Fold change /veh ECM1 (11717891_a_at) / RFU IL23R (11748794_a_at) / Fold change /veh IL23R (11748794_a_at) / RFU TNFAIP8L3 (11732012_x_at) / Fold change /veh TNFAIP8L3 (11732012_x_at) / RFU MBOAT4 (11741988_at) / Fold change /veh MBOAT4 (11741988_at) / RFU 11764193_at / Fold change /veh 11764193_at / RFU TMEM53 (11763286_at) / Fold change /veh TMEM53 (11763286_at) / RFU MAGEB2 (11727129_at) / Fold change /veh MAGEB2 (11727129_at) / RFU TMEM200A (11744735_a_at) / Fold change /veh TMEM200A (11744735_a_at) / RFU CCDC152 (11751479_a_at) / Fold change /veh CCDC152 (11751479_a_at) / RFU FAM211A (11726209_a_at) / Fold change /veh FAM211A (11726209_a_at) / RFU RGS16 (11746705_a_at) / Fold change /veh RGS16 (11746705_a_at) / RFU VCAN (11755009_s_at) / Fold change /veh VCAN (11755009_s_at) / RFU RHOB (11743442_s_at) / Fold change /veh RHOB (11743442_s_at) / RFU RGS16 (11720943_a_at) / Fold change /veh RGS16 (11720943_a_at) / RFU RGS16 (11720944_at) / Fold change /veh RGS16 (11720944_at) / RFU, VPS4B / Fold change vs veh, VPS4B / RFU, CREB1 / Fold change vs veh, CREB1 / RFU, DNAJC13 / Fold change vs veh, DNAJC13 / RFU, GNAQ / Fold change vs veh, GNAQ / RFU, CDK5R1 / Fold change vs veh, CDK5R1 / RFU, ZRANB3 / Fold change vs veh, ZRANB3 / RFU, CUL4A / Fold change vs veh, CUL4A / RFU, CCNY / Fold change vs veh, CCNY / RFU, UFL1 / Fold change vs veh, UFL1 / RFU, COG3 / Fold change vs veh, COG3 / RFU, DIAPH2 / Fold change vs veh, DIAPH2 / RFU, SKA2 / Fold change vs veh, SKA2 / RFU, AFF3 / Fold change vs veh, AFF3 / RFU, LMF1 / Fold change vs veh, LMF1 / RFU, IPO11 / Fold change vs veh, IPO11 / RFU, DFFB / Fold change vs veh, DFFB / RFU, FOXP1 / Fold change vs veh, FOXP1 / RFU, CARD8 / Fold change vs veh, CARD8 / RFU, STRN3 / Fold change vs veh, STRN3 / RFU, ADK / Fold change vs veh, ADK / RFU, RASSF2 / Fold change vs veh, RASSF2 / RFU, WIPF1 / Fold change vs veh, WIPF1 / RFU, LARP1B / Fold change vs veh, LARP1B / RFU, RASA1 / Fold change vs veh, RASA1 / RFU, RB1 / Fold change vs veh, RB1 / RFU, PPFIA1 / Fold change vs veh, PPFIA1 / RFU, MAT2A / Fold change vs veh, MAT2A / RFU, CCT5 / Fold change vs veh, CCT5 / RFU, WDR92 / Fold change vs veh, WDR92 / RFU, CUX1 / Fold change vs veh, CUX1 / RFU, TTC7A / Fold change vs veh, TTC7A / RFU, TMEM135 / Fold change vs veh, TMEM135 / RFU, DEPTOR / Fold change vs veh, DEPTOR / RFU, CPM / Fold change vs veh, CPM / RFU, DNAJB6 / Fold change vs veh, DNAJB6 / RFU, CACNA2D3 / Fold change vs veh, CACNA2D3 / RFU, DTX4 / Fold change vs veh, DTX4 / RFU, TFCP2 / Fold change vs veh, TFCP2 / RFU, GMCL1 /// GMCL1P1 / Fold change vs veh, GMCL1 /// GMCL1P1 / RFU, AEBP2 / Fold change vs veh, AEBP2 / RFU, SNHG1 /// SNORD22 /// SNORD25 /// SNORD26 /// SNORD27 /// SNORD28 /// SNORD29 /// SNORD31 / Fold change vs veh, SNHG1 /// SNORD22 /// SNORD25 /// SNORD26 /// SNORD27 /// SNORD28 /// SNORD29 /// SNORD31 / Fold change (Aza/veh), C12orf56 (ProbeSet 11735607_a_at) / Fold change (ACY-1035/veh), C12orf56 (ProbeSet 11735607_a_at) / Fold change (Aza/veh), FGFR1OP (ProbeSet 11751329_s_at) / Fold change (ACY-1035/veh), FGFR1OP (ProbeSet 11751329_s_at) / Fold change (Aza/veh), VPS36 (ProbeSet 11739960_a_at) / Fold change (ACY-1035/veh), VPS36 (ProbeSet 11739960_a_at) / RFU SYPL1 (11715823_x_at) / Fold change /veh SYPL1 (11715823_x_at) / RFU IGFBP7 (11715501_s_at) / Fold change /veh IGFBP7 (11715501_s_at) / RFU REEP3 (11722064_at) / Fold change /veh REEP3 (11722064_at) / RFU IGLL1 (11728026_x_at) / Fold change /veh IGLL1 (11728026_x_at): dose or concentration left out as unconfirmed
Details: MV-4-11 cells, 48 hours

## Nc1ncn([C@@H]2O[C@H](CO)[C@@H](O)[C@H]2O)c(=O)n1 [azacitidine]
  Fold change /veh WNT11 (11732464_a_at): 0.83
